In brackets after ≈: the same amount, converted by molar mass. Like-named read-outs stand apart in the source and are kept apart here.
Legend:
[1] = tested on: Toxoplasma gondii RH-GFP; experiment: In vitro growth inhibition assay (RH-GFP fluorescence in infected HFF cells); assay type: cell-based; settings: for inhibition at 50 µg/mL / IC50: Toxoplasma gondii; for inhibition at 50 µg/mL: HFF, read-out: % Parasite inhibition (mean ± s.d.); for IC50: read-out: IC50 (anti-toxoplasmosis activity)
Experimental: Briefly, HFF cells were seeded into 96-well plates (1 × 10^4 cells/well) and cultured for 48 h. Expressing green fluorescent protein (GFP) type I strain RH (RH-GFP) tachyzoites (Nishikawa et al. [2003]) were added to the wells (5 × 10^4 tachyzoites/well). After a 4-h incubation, extracellular parasites were removed by washing. Then, chemical compounds at a final concentration of 50 µg/mL were added. […] After a 72-h incubation, the fluorescence intensity of RH-GFP was measured to determine the parasite growth. Compounds with parasite inhibition ≥ 80% were further screened for dose–response effects at final concentrations of 3.125 µg/mL, 6.25 µg/mL, 12.5 µg/mL, 25 µg/mL and 50 µg/mL.

[2] = Cytotoxicity analysis on HFF cells (CCK-8); assay type: cell-based, human; settings: human, human foreskin fibroblasts (HFF) cells; test compounds at 50 µg/mL
Experimental: (§1) The cytotoxicity of the chemical compounds on human foreskin fibroblasts (HFF) cells was determined by using the cell counting kit-8 (CCK-8) (Dojindo Molecular Technologies, Inc. Japan) according to the manufacturer’s instructions. The compounds were dissolved in dimethyl sulfoxide (DMSO). HFF cells were plated in 96-well plates at a density of 1 × 10^4 cells per well. After a 48-h incubation at 37 °C in a 5% CO2 atmosphere, cells were exposed to various concentrations of tested chemical compounds (1 µg/mL, 5 µg/mL, 10 µg/mL, 25 µg/mL, 50 µg/mL and 100 µg/mL). Culture medium containing the same volume of DMSO was used as a negative control. After 24 h, the surviving cells were determined by adding CCK-8 reagent. Cell viability was measured based on the absorbance at 450 nm after an additional 4-h incubation.

[3] = Vero cell viability; assay type: cell-based; settings: African green monkey, Vero cells; test compounds at 100 µg/mL
Source text: (§2) TABLE 2 Screening of chemical compounds for anti-RH-GFP efficacy. | column: % viability Vero ^¶

[4] = tested on: human foreskin fibroblasts (HFF) cells; experiment: Cytotoxicity analysis on HFF cells (CCK-8); assay type: cell-based; settings: for Effect on host cell viability / growth: HFF cells, 0-100 µg/mL, 24 h
Experimental: as §1

[5] = tested on: Toxoplasma gondii RH-GFP tachyzoites; assay type: cell-based; settings: for Activity against extracellular and intracellular parasites: invasion and replication tests, FJS-302 10 µg/mL, FJS-303 and FJS-403 12.5 µg/mL, SFZ 1 mg/mL; for Infection rate (SAG1-positive Vero cells per 100 Vero cells): non-treated 11.3% ± 0.6%
Experimental: Vero cells were seeded on 12-well plates as described here, and purified RH-GFP tachyzoites were treated with FJS-302, FJS-303, FJS-403 or FJS-INH for 1 h at 37 °C. Then treated parasites were added to Vero cells in a 12-well plate (2 × 10^5 tachyzoites per well). At 2 h postinfection, the extracellular parasites were removed by washing, and the infected Vero cells were further incubated for 24 h at 37 °C in a 5% CO2 incubator. After incubation, IFAT was conducted as described here to evaluate the effects of the chemical compounds on parasite invasion. The infection rates were calculated as follows: [number of SAG1-positive Vero cells]/[100 randomly selected Vero cells]×100 [Eqn 1]
In addition, at least 10 fields were observed per group to measure the average number of parasites per field.

[6] = tested on: Toxoplasma gondii PruΔku80Δhxgprt; experiment: Bradyzoite differentiation assay (Vero cells, IFAT); assay type: cell-based; settings: 48 h; for Antitachyzoite activity: PruΔku80Δhxgprt; for Bradyzoite number: compounds 50 µg/mL (Figure 4 legend)
Experimental: Vero cells were plated in 12-well plates at a density of 1 × 10^5 cells per well and incubated for 24 h at 37 °C in a 5% CO2 atmosphere. Then, purified PruΔku80Δhxgprt tachyzoites were added to Vero cells at 1 mL/well (parasites per host cell ratio = 1:1). Two hours postinfection, chemical compounds were added in EMEM supplemented with 8% FBS. Indirect fluorescent antibody test was conducted after a 48-h incubation. Tachyzoites were stained by using anti-SAG1 mouse polyclonal antibody (Guo et al. [2019]), and bradyzoites were detected by using anti-GFP rabbit polyclonal antibody (Medical & Biological Laboratories CO., LDT, Japan). Secondary antibody Alexa Fluor 594-conjugated goat anti-mouse IgG (Invitrogen, United States) diluted 1:1000 and Alexa Fluor 488-conjugated goat anti-Rabbit IgG (Invitrogen, United States) diluted 1:1000 were used. Five fields per well were observed by using an All-in-one Fluorescence Microscope (BZ-9000, Keyence, Japan), and the percentage of bradyzoites was calculated.

[7] = tested on: Vero cells; experiment: Vero cell viability; assay type: cell-based; settings: sulphadiazine at 1 mg/mL
Source text: as §2

[8] = tested on: Toxoplasma gondii RH strain; settings: ref De Oliveira et al. [2009]; cited from earlier work
[9] = tested on: HFF cells; settings: 200 µg/mL of SFZ; ref De Oliveira et al. [2009]; cited from earlier work
[10] = 72 h, test compounds at 50 µg/mL, 72 h, RH-GFP-infected HFF cells
[11] = RH-GFP-infected HFF cells, 72 h, 3.125-50 µg/mL
[12] = test compounds at 50 µg/mL, 72 h, RH-GFP-infected HFF cells
[13] = parasites pretreated with 12.5 µg/mL
[14] = parasites pretreated with 12.5 µg/mL for 1 h

`CCCCCCCCCCc1cn(Cc2ccc(Br)cc2)nn1` [FJS-104] gave an inhibition at 50 µg/mL [1, 10] of 62.2 ± 6%, a viability at 24 h, 50 µg/mL [2] of 100% and a viability at 100 µg/mL [3] of 103%.
In the case of `Brc1ccc(Cn2cc(CSc3ccccc3)nn2)cc1` [FJS-105], the inhibition at 50 µg/mL [1, 10] is reported as 60.5 ± 6.1%, the viability at 24 h, 50 µg/mL [2] is reported as 100% and the viability at 100 µg/mL [3] is reported as 103%.
Compound `CCCCc1cn(Cc2ccccc2)nn1` [FJS-201] has an inhibition at 50 µg/mL [1, 10] of 64.6 ± 6.8%, a viability at 24 h, 50 µg/mL [2] of 100% and a viability at 100 µg/mL [3] of 99.3%.
Compound `c1ccc(Cn2cc(CSc3ccccc3)nn2)cc1` [FJS-205] has an inhibition at 50 µg/mL [1, 10] of 60.2 ± 5.1%, a viability at 24 h, 50 µg/mL [2] of 100% and a viability at 100 µg/mL [3] of 101%.
With `CCCCc1cn(Cc2ccc(C)cc2)nn1` [FJS-301] the inhibition at 50 µg/mL [1, 10] was 57.7 ± 3%, the viability at 24 h, 50 µg/mL [2] was 96.2% and the viability at 100 µg/mL [3] was 85.4%.
For `CCCCCCc1cn(Cc2ccc(C)cc2)nn1` [FJS-302], the inhibition at 50 µg/mL [1, 10] was > 80%, the IC50 [1, 11] was 5.6 µg/mL (≈ 21.8 µM) and the “% Parasite inhibition (mean ± s.d.)” value [1, 12] was 95.9 ± 4.6%. For the same compound, the viability at 24 h, 50 µg/mL [2] was 85%, the “Effect on host cell viability / growth” value [4] was “no significant suppression on host cell growth” and the viability at 100 µg/mL [3] was 86.1%. For the same compound, the “Activity against extracellular and intracellular parasites” value [5] was “effective against extra- and intracellular parasites”, the “Number of parasites per field after pretreatment” value (from here on “Number of parasites per field”) ([5]; parasites pretreated with 10 µg/mL) was “significantly reduced” and the “Infection rate (SAG1-positive Vero cells per 100 Vero cells)” value ([5]; parasites pretreated with 10 µg/mL for 1 h) was 6.2% ± 0.5%. The Antitachyzoite activity [6] was “significant antitachyzoite activity” and the “Bradyzoite number” value [6] was “did not increase the bradyzoite number”.
For `CCCCCCCCc1cn(Cc2ccc(C)cc2)nn1` [FJS-303], the inhibition at 50 µg/mL [1, 10] was > 80%, the IC50 [1, 11] was 6.8 µg/mL (≈ 23.8 µM) and the “% Parasite inhibition (mean ± s.d.)” value [1, 12] was 96.3 ± 3.9%. For the same compound, the viability at 24 h, 50 µg/mL [2] was 110%, the “Effect on host cell viability / growth” value [4] was “no significant suppression on host cell growth” and the viability at 100 µg/mL [3] was 101%. The “Activity against extracellular and intracellular parasites” value [5] was “effective against extra- and intracellular parasites”, the “Number of parasites per field” value [5, 13] was “significantly reduced” and the “Infection rate (SAG1-positive Vero cells per 100 Vero cells)” value [5, 14] was 5.8% ± 0.5%. The Antitachyzoite activity [6] was “significant antitachyzoite activity” and the “Bradyzoite number” value [6] was “did not increase the bradyzoite number”.
In the case of `CCCCCCCCc1cn(Cc2ccc(C(F)(F)F)cc2)nn1` [FJS-403], the inhibition at 50 µg/mL [1, 10] is reported as > 80%, the IC50 [1, 11] is reported as 7 µg/mL (≈ 20.6 µM) and the “% Parasite inhibition (mean ± s.d.)” value [1, 12] is reported as 91.5 ± 1.7%. For the same compound, the viability at 24 h, 50 µg/mL [2] was 103%, the “Effect on host cell viability / growth” value [4] was “no significant suppression on host cell growth” and the viability at 100 µg/mL [3] was 102%. The “Activity against extracellular and intracellular parasites” value [5] was “effective against extra- and intracellular parasites”, the “Number of parasites per field” value [5, 13] was “significantly reduced” and the “Infection rate (SAG1-positive Vero cells per 100 Vero cells)” value [5, 14] was 5.2% ± 0.7%. The Antitachyzoite activity [6] was “significant antitachyzoite activity” and the “Bradyzoite number” value [6] was “did not increase the bradyzoite number”.
`CCCCCCCCCCc1cn(Cc2ccc(C(F)(F)F)cc2)nn1` [FJS-404] gave an inhibition at 50 µg/mL [1, 10] of 64.5 ± 1.8% and a viability at 24 h, 50 µg/mL [2] of 100%.
Compound `FC(F)(F)c1ccc(Cn2cc(CSc3ccccc3)nn2)cc1` [FJS-405] has an inhibition at 50 µg/mL [1, 10] of 35 ± 5%, a viability at 24 h, 50 µg/mL [2] of 100% and a viability at 100 µg/mL [3] of 103%.
With `NNC(=O)c1ccncc1` [FJS-INH, isoniazid, reference compound] the “Potency relative to the leading BnTz derivative” value ([1]; T. gondii growth inhibition, from IC50) was “threefold less potent”, the inhibition at 50 µg/mL [1, 10] was > 80% and the IC50 [1, 11] was 19.8 µg/mL (≈ 144 µM). For the same compound, the “% Parasite inhibition (mean ± s.d.)” value [1, 12] was 87.2 ± 4.6%, the viability at 24 h, 50 µg/mL [2] was 118% and the “Effect on host cell viability / growth” value [4] was “no significant suppression on host cell growth”. For the same compound, the viability at 100 µg/mL [3] was 98%, the “Infection rate (SAG1-positive Vero cells per 100 Vero cells)” value ([5]; parasites pretreated with 50 µg/mL for 1 h) was 10.7% ± 0.5% and the Antitachyzoite activity [6] was “significant antitachyzoite activity”.
For `Nc1ccc(S(=O)(=O)Nc2ncccn2)cc1` [SFZ, sulphadiazine, reference compound], the “IC50 (anti-toxoplasmosis activity)” value [1, 11] was 59.5 µg/mL (≈ 238 µM), the “% Parasite inhibition (mean ± s.d.)” value ([1]; sulphadiazine at 1 mg/mL, 72 h, RH-GFP-infected HFF cells) was 73.7 ± 4.6% and the “% viability HFF” value ([4]; sulphadiazine at 1 mg/mL) was 105.19%. The “% viability Vero” value [7] was 92.11%, the “Activity against extracellular and intracellular parasites” value [5] was “affected only intracellular parasite” and the “Infection rate (SAG1-positive Vero cells per 100 Vero cells)” value ([5]; parasites pretreated with 1 mg/mL for 1 h) was 11.7% ± 1.3%. For the same compound, the “Bradyzoite number (GFP-positive parasitophorous vacuoles per field)” value ([6]; SFZ 1 mg/mL, no treatment 6.5 ± 1.5) was 23.7 ± 6.0, the “Bradyzoite rate (bradyzoite differentiation)” value ([6]; SFZ 1 mg/mL, no treatment 8.2% ± 1.9%) was 46.6% ± 7.9% and the “IC50 of SFZ on RH strain” value [8] was 70 µg/mL. The “Decrease of viability of HFF cells” value [9] was 28%.

Reference: paper PMC8252180, “In vitro anti-Toxoplasma gondii efficacy of synthesised benzyltriazole derivatives” (The Onderstepoort Journal of Veterinary Research, 2021)
